We go through one molecule from patent publication US20260256728A1, “TREATMENT FOR ASYMPTOMATIC STARGARDT DISEASE PATIENTS” (priority 2024, published 2026).

This data set can be described thus: TEASE-3 safety. Type of data set: in vivo, human. The following applies: three patients, 14 mg daily. The procedure:
The tolerability and effects of ALK-001 (gildeuretinol acetate) in Stargardt Disease (Clinical trial group 3, also known as TEASE-3) study was an open-label, multicenter, case control study designed to evaluate the efficacy and safety of gildeuretinol acetate on the progression of Stargardt disease in asymptomatic individuals. The trial was conducted at multiple sites in the United States. Patients received gildeuretinol acetate 14 mg capsules, to be taken orally once daily. Trial visits occurred every 6 months approximately following screening and treatment start visits. Ocular safety was assessed by retinal imaging and ocular exam, which included evaluation of the anterior and posterior segments and the lens. Systemic safety was assessed by physical exam, comprehensive clinical labs (biochemistry, hematology, lipids), and 12-lead ECG.

Each structure is given as a SMILES string.

In the case of `[2H]C([2H])([2H])C(/C=C/C=C(C)/C=C/C1=C(C)CCCC1(C)C)=C\COC(C)=O` [gildeuretinol acetate], the “adverse reactions linked to excessive or insufficient vitamin A (delays in dark adaptation, night blindness)” value is “None of the three Stargardt disease asymptomatic patients exhibited adverse reactions”.
